The subject of one data set is taxol induced neuropathy. Briefly: Electrophysiological monitoring in taxol induced neuropathy, co-administration. Format: in vivo, rat. The procedure: The aim of the following experiment was to investigate the potential neuroprotective effect of IL6 in an additional model of chemotherapeutic induced neuropathy mediated by taxol. The potential preventive effect of IL-6 co-administration was tested. Administration of IL-6 was initiated together with taxol administration. The doses of IL-6 of 3 and 10 μg/kg were administered daily or in the case 10 μg/kg also only 3 times per week.
Females 10 weeks old aged Dark Agouti rats were used, 12 animals per group were included as following
The taxol was diluted in a solution of cremophor/ethanol/dextrose 5% and administered twice a week during 4 weeks.
4-MC and test compounds treatment was initiated the first day of intoxication and was stopped at the end of the study.
The study was performed on 8 weeks (1 week for the baseline, 4 weeks for the taxol intoxication and 3 weeks of recovery).
Control, taxol, and taxol-IL-6 co-administered group of rats at the indicated doses were subjected to electrophysiological monitoring to assess the effect of IL-6 in taxol-induced loss of fiber/nerve function.
(§1) Sensitive nerve conduction velocity (SNCV) was also recorded. The tail skin electrodes were placed as follows: a reference needle inserted at the base of the tail and an anode needle placed 30 mm away from the reference needle toward the extremity of the tail. A ground needle electrode was inserted between the anode and reference needles. The caudal nerve was stimulated with a series of 20 pulses (for 0.2 ms) at an intensity of 12.8 mA. The velocity was expressed in m/s.
H-wave reflex was recorded in the hind footpad muscle after stimulation of the sciatic nerve. […] The sciatic nerve was stimulated with a single 0.2 ms pulse at supramaximal intensity. The amplitude (mV) of H wave and the proportion of animal lacking H wave response were the parameters studied.

Data set [1] has as its system vincristine induced neuropathy. Kind of data set: Electromyography (EMG) in vincristine-treated rats. Format: in vivo, rat. Conditions: 4-MC 10 μg/kg IP daily with vincristine. As for the experimental part: In parallel to behavioral tests, electrophysiological test as described in Example 17, were carried out to evaluate fiber/nerve function in vincristine-administered rats vis-à-vis rats co-administrated with IL-6.
(§2) Electrophysiological recordings were performed using a Neuromatic 2000M electromyograph (EMG) (Dantec, Les Ulis, France). Rats were anaesthetized by IP injection of 60 mg/kg ketamine chlorhydrate (Imalgene 500®, Rhône Merieux, Lyon, France). The normal body temperature was maintained around […] with a heating lamp and verified using a contact thermometer (Quick, Bioblock Scientific, Illkirch, France) placed on the tail surface.
(§3) Compound muscle action potential (CMAP) of M wave signal (or electrically evoked muscle potential) was recorded in the gastrocnemius muscle after stimulation of the sciatic nerve. M wave reflects the current developed during the action potential of muscle fibers. A reference electrode and an active needle were placed in the hind paw. A ground needle was inserted on the lower back of the rat. Sciatic nerve was stimulated with a single 0.2 ms pulse at supramaximal intensity. The […] of the motor wave was recorded and expressed in ms.
as §1
(§4) H-wave reflex was recorded in the hind footpad muscle after stimulation of the sciatic nerve. A reference electrode and a ground needle were placed on the lower back of the rat. The sciatic nerve was stimulated with a single 0.2 ms pulse at supramaximal intensity. The amplitude (mV) of H wave and the proportion of animal lacking H wave response were the parameters studied.

Data set [2] relates to cisplatin induced neuropathy. Format: in vivo, rat. The procedure: The drug was diluted in 0.9% sterile aqueous solution of sodium chloride.
4-MC was diluted in 0.9% sterile aqueous solution of sodium chloride and injected daily via IP route from day 23 to the end of the experiment.
Electrophysiological tests described in Example 17, were carried out in parallel to the behavioral tests (described in the preceding example) in cisplatin-established neuropathy model. The objective was to assess the therapeutic effect of IL-6 in cisplatin-induced loss of fiber/nerve function.
as §2, §1, §4

Data set [3] relates to cisplatin induced neuropathy. The class given is in vivo, rat. The settings on record: 4-MC 10 μg/kg IP daily. As for the experimental part: Electrophysiological monitoring in cisplatin-induced neuropathy model was carried out as described in Example 17. The objective was to assess the effect of co-administration with IL-6 in cisplatin-induced loss of fiber/nerve function.
as §2, §3, §1, §4

The test system of data set [4] is cisplatin induced neuropathy. Kind of data set: Morphometric analysis, therapeutic treatment of established cisplatin neuropathy. Format: in vivo, rat. Conditions: 4-MC 10 μg/kg IP. From the text: The number of degenerated and non-degenerated fibers on the entire surface of each nerve section was counted by an operator in a blinded fashion. All the results (except the data expressed as ratio value) were reported as percentage of changes in reference to the control value.

In data set [5] the test system is vincristine induced neuropathy. Kind of data set: Morphometric analysis of sciatic nerve in vincristine-treated rats. The class given is in vivo, rat. The settings on record: 4-MC 10 μg/kg IP daily. As for the experimental part: Histomorphometric analyses were carried out as described in Example 18 at the completion of the experiments, to explore morphologic changes occurring in fiber and axon diameter and myelin thickness in rats treated with vincristine and in rats co-administrated with IL-6.
With vincristine, morphometric analysis was performed 2 week after the end of vincristine administration on 3 animals per group. The animals were anesthetized by IP injection of 100 mg/kg Imalgène 500®. A 5 mm segment of sciatic nerve was excised, fixed overnight with 4% glutaraldehyde (Sigma, L'Isle d'Abeau-Chesnes, France) in phosphate buffered saline (PBS) (pH=7.4) and maintained in 30% sucrose and stored at 4° C. until further processing. At the time of use, the nerve sample was post-fixed in 1% osmium tetroxide (Sigma, L'Isle d'Abeau-Chesnes, France) in PBS for 2 h, dehydrated in serial alcohol solution, and embedded in Epon. Embedded tissues were then placed at 70° C. during 3 days to allow polymerization of the tissue wax. Cross sections of 1.5 μm thick were performed and they were stained with a 1% toluidine blue solution (Sigma, L'Isle d'Abeau-Chesnes, France) for 2 min, dehydrated and mounted on Eukitt. Twelve sections per sample were examined using an optical microscope (Nikon, Tokyo, Japan) and analyzed using, a semi-automated digital image analysis software (Biocom, France). The fiber diameter (a), axon diameter (b), and myelin thickness (c) were measured as illustrated below.

In data set [6] the test system is vincristine induced neuropathy. Briefly: Hot plate test in vincristine-treated rats. Format: in vivo, rat. The settings on record: 4-MC 10 μg/kg IP daily. The procedure:
(§5) The rat was placed inside a glass cylinder of 17 cm height and 21 cm diameter on a heating-plate maintained at 52° C. (Medite OTS 40, Microm, Francheville, Rhône, France). The animal behavior was observed, particularly the licking of a foot and the adjusted leap. The latency before licking a foot or before jumping to escape the heat (adjusted leap) was recorded. The time needed to feel the thermal pain is related to the thermal sensitivity and tends to increase when thermal sensitivity is altered.
(In hot-plate and tail-flick tests a longer latency is read as antinociception.)

In data set [7] the test system is cisplatin induced neuropathy. Kind of data set: Hot plate test in cisplatin-treated rats, co-administration. Format: in vivo, rat. The settings on record: 4-MC 10 μg/kg IP daily; 3 weeks. The procedure:
as §5

In data set [8] the test system is cisplatin induced neuropathy. Kind of data set: Morphometric analysis of sciatic nerve in cisplatin-treated rats, co-administration. Format: in vivo, rat. Conditions: 4-MC 10 μg/kg IP daily. As for the experimental part:
The total number of fibers per nerve section was obtained from 3 randomized slices of each sample. The counting was performed on 2 selected fields per slice.

The subject of data set [9] is cisplatin induced neuropathy. Briefly: Hot plate test, therapeutic treatment of established cisplatin neuropathy. Format: in vivo, rat. The settings on record: 4-MC 10 μg/kg IP daily from day 23; after 2 weeks; p≦0.05.
Data set [10] deals with lung (SK-MES1) tumor cell line. Kind of data set: Cell survival by acid phosphatase activity assay, SK-MES1. Conditions: 4 days. The class given is cell-based, human. As for the experimental part:
(§6) The human lung (SK-MES1) and breast (MCF7) tumor cell lines were obtained from ATCC. The cell lines were maintained in Dulbecco's MEM medium (Gibco; Invitrogen, Cergy-Pontoise, France, ref. 41965039) supplemented with 1% antibiotic/antimicotic mixture solution (Gibco, ref. 15240062), and 10% heat-inactivated foetal bovine serum (Gibco, ref. F7524, batch 92K3387). The cells were amplified in Nunc tissue culture flasks (80 cm2) in a humidified incubator at 37° C. with 5% CO2 in 95% air. Cultures were sub-cultured twice a week.
(§7) The enzymatic activity has been proven to be proportional to the number of living cells (Ueda et al.; 1994).
(§8) Three days after the last replication, tumor cells were seeded in 96 well-plates (TPP, VWR International, Fontenay-sous-bois, France) at a density of 1,500 cells (MCF7 line) or 3,000 cells (SK-MES1 line) per well, in a total volume of 100 μl/well and incubated overnight in a humidified incubator at 37° C. with 5% CO2 in 95% air. […] IL-6 (in buffer solution at 1.8 mg/ml, PH: 7) was immediately added at concentrations of 0, 3, 12, 50 or 200 ng/ml.
(§9) Four days after the initiation of the intoxication, acid phosphatase activity (Example 21) in each cell culture was assessed.
(§10) After removal of the culture medium, cells were rinsed with phosphate-buffered saline (PBS, Gibco, ref. 14190-094) and further incubated for 90 min at 37° C. in 100 μl of buffer containing 0.1 mol/l sodium acetate (pH 5.5), 0.1% Triton X100 (Sigma, ref. T9284) and 10 mmol/l p-nitrophenyl phosphate (Sigma, ref. N9389). Reaction was stopped by addition of 10 μl of 1 mol/l sodium hydroxide aqueous solution (Laboratoire de Produit Chimiques de la Robertsau, Strasbourg, France; ref. 28.252.293). Absorbance of the colored solution was measured at 405 nm in a microplate reader (Labsystems Multiskan Bichromatic, EST-LAB, Strasbourg, France).
(§11) The results were expressed as percentage of optical density of the control cell cultures. The heights of the columns represent mean±SEM of percentages of 5-6 wells from two independent cultures.

Data set [11] relates to breast (MCF7) tumor cell line. Briefly: Cell survival by acid phosphatase activity assay, MCF7. The class given is cell-based, human. The settings on record: 4 days. As for the experimental part:
as §6, §7, §8, §9, §10, §11

Where [12] appears, read: cisplatin (2.5 μM), carboplatin (25 μM).

On to `Cc1ccc(O)c(O)c1` [4-MC, 4-methylcatechol], for which the “prevention of H-wave amplitude reduction by taxol” value in the data set on taxol induced neuropathy (4-MC 10 μg/kg daily i.p.) was “not significant”. The “H wave latency under taxol” value in the data set on taxol induced neuropathy (4-MC 10 μg/kg daily i.p., weeks 3, 5, 6 and 7) was “improvement in H wave latency”. Also, in [1], the “protection against loss of M wave amplitude” value is reported as “protect the loss of M wave amplitude only transiently”. Besides, the “cisplatin-induced H wave loss in amplitude” value in data set [2] (4-MC 10 μg/kg IP daily from day 23) is listed as “reversed the cisplatin-induced H wave loss in amplitude”. Further, in data set [2] (4-MC 10 μg/kg IP, significant only 2 weeks after treatment initiation), the “SNCV in cisplatin-treated animals” value is given as “appeared to improve SNCV”. Moreover, the “loss of H wave induced by cisplatin” value in [3] is “only a delayed and transient effect”. Further, the “decrease in SNCV by cisplatin” value in data set [3] (only after 5 weeks) is listed as “transiently prevented the decrease in SNCV”. The “cisplatin-induced myelin sheath thinning” value in data set [4] is “did not interfere with cisplatin-induced myelin sheath thinning”. The “proportion of degenerated fibers” value in [4] (p>0.05) is given as “slight but not significant reduction”. Further, in data set [5], the “decrease in axon diameter by vincristine” value was “significantly reduced/prevented the decrease in axon diameter”, the “percentage of degenerated fibers in vincristine treated rats” value is “decreased the percentage of degenerated fibers” and the vincristine-induced fiber shrinkage result is “protected”. In addition, the “prevention of vincristine-induced nociception loss (hot plate)” value in [6] is reported as “did not appear to have any major preventive effect”. The “first reaction time versus cisplatin alone” value in data set [7] is given as “slight but not significant decrease”. In [8], the “cisplatin-induced decrease in fiber or axon diameter” value is on record as “protected against the decrease in cisplatin-induced fiber diameter or axon” and the “loss of myelin wall by cisplatin” value is listed as “significant protection against loss of myelin wall”. Also, the “time of the first reaction to heat” value in data set [9] was “Reduction of the time of the first reaction to heat”.

`N.N.O=C([O-])C1(C(=O)[O-])CCC1.[Pt+2]` [carboplatin]: the “decrease in cell survival versus control” value in data set [10] (setting [12]) and in [11] (setting [12]) was “about 50%” in each case.

With `CC(=O)O[C@H]1C(=O)[C@@]2(C)[C@H]([C@H](OC(=O)c3ccccc3)[C@]3(O)C[C@H](OC(=O)[C@H](O)[C@@H](NC(=O)c4ccccc4)c4ccccc4)C(C)=C1C3(C)C)[C@]1(OC(C)=O)CO[C@@H]1C[C@@H]2O` [taxol], the “SNCV versus non-treated control” value in the data set on taxol induced neuropathy (taxol alone, 3 weeks) is listed as “significantly slower”. Further, the H wave latency result in the data set with taxol induced neuropathy (taxol alone, 3 weeks after taxol treatment) was “significant increase”; in the data set with taxol induced neuropathy (taxol alone, 6 weeks after taxol treatment), “dramatically increased”. Further, the “decrease of cell survival” value in [10] (taxol, 'this concentration' (30 nM)) is listed as “about 70%”. For the same compound, the “decrease in cell survival” value in [11] (taxol 30 nM) is “about 55%”.

(Values after patent US7951359B2, “Compositions and methods for therapy or prevention of chemotherapy-induced neuropathy” (Merck Serono SA, priority 2004, dated 2011).)
